Measured values published in US8435969B2, “Method and compositions for treating hematological malignancies” (Gilead Sciences, Inc., priority 2006, dated 2013).
Blank lines part the entries; values can stand above or below the compound they belong to.

What was measured:
[1] = Solubility of the succinate salt; format: physicochemical; conditions: pH 4.2-4.7
[2] = Storage stability in aqueous solution; format: physicochemical; conditions: 60 hours
Excerpt: Parenteral (sterile aqueous) solutions of the organic acid salts of compound 1 optionally comprise a stabilizing amount of carbohydrate, typically a saccharide (mono, di or polysaccharides), glycoside or sugar alcohol (alditols). Polysaccharides should be biodegradable upon parenteral injection or infusion and include dextrins and starches, typically 3-10 units. Representative carbohydrates include hexoses, aldoses, aldohexoses, aldotrioses (e.g. glyceraldehyde), aldotetroses (e.g. erythrose), aldopentoses (e.g. arabinose), ketoses, ketohexose (e.g. fructose), ketopentoses (e.g. ribulose), maltose, sucrose, lactose, ribose, xylose, lyxose, allose, altrose, glucose, mannose, gulose, idose, galactose and talose. Of particular interest are carbohydrates conventionally used in parenteral formulations, e.g., mannitol or dextrose. The optical character of the carbohydrate is not critical, but it is desirable for the configuration to be such that the carbohydrate is biodegradable upon parenteral administration. […] On the other hand, storage in buffered solutions at pH 2, 7 and 9 under the same conditions lead to substantial degradation of compound 1: About 100%,18% and 76% by weight, respectively.

[3] = dog, in vivo, iv, 0.2 mg/kg
Method: Distribution of Prodrugs between PBMCs and Plasma in Dogs • Dogs were administered various prodrugs of cpr-PMEDAP as 0.2 mg/kg 30 minute IV infusions. […] Alanine was the L isomer. • Blood was collected into potassium EDTA and separated by centrifugation. Primary blood mononuclear cells (PBMCs) were collected using CPT tubes (sodium citrate). • For analysis, plasma samples were precipitated by addition of 100 μL acetonitirile containing internal standards (D4AP and TDF) to 100 μL of plasma for prodrug analysis. After protein precipitation by centrifugation, 100 μA was transferred into another tube to be dried and then reconstituted in 100 μL water with 0.2% formic acid. An aliquot of 20 μL was injected onto the column for LC/MS/MS analysis. Analysis was done using a 150×2.0 mm, 4 μm Synergi Fusion-RP 80A column (Phenomenex) and a multistage linear gradient from 0.5 to 99% acetonitrile in the presence of 0.2% formic acid at 0.25 mL/min. Analytes were detected using a Sciex API-4000 mass spectrometer using electrospray ionization in positive MRM mode. […] Separate aliquots of cells from each time point resuspended in 100% serum were used to establish the cell quantities in each sample. Cell samples were normalized to 15×10^6 cells per sample. Varying degrees of hemolyses have been observed. […] 20 μL was injected for LC/MS/MS analysis using a 50×2.0 mm, 4 μm Synergi Hydro-RP 80A column (Phenomenex) and a multistage linear gradient from 0 to 95% acetonitrile in the presence of 0.2% formic acid at 1.0 mL/min. Analytes were detected using a Sciex API-4000 mass spectrometer using electrospray ionization in positive MRM mode. • After drying, samples for dephosphorylation were treated with 1 U of calf intestinal phosphatase (alkaline phosphatase, Sigma) for 2 h in manufacturer provided buffer. Samples were then adjusted to 60% acetonitrile dried and resuspended in 60% acetonitrile containing internal standards (TDF and D4AP) and analyzed for cpr-PMEDAP as described for direct PBMC analysis.

[4] = Hygroscopicity; format: physicochemical; conditions: solid form

solubility [1]: > 39 mg/mL
Degradation on storage ([2]; 5% dextrose (by weight of solution; pH about 4.2, unbuffered), 40° C.): without significant degradation
Degradation on storage ([2]; buffered solution pH 2, 40° C.): About 100 % by weight
Degradation on storage ([2]; buffered solution pH 9, 40° C.): ~76 % by weight
SMILES: CCOC(=O)[C@H](C)NP(=O)(COCCn1cnc2c(NC3CC3)nc(N)nc21)N[C@@H](C)C(=O)OCC [compound 1 succinate]

PBMC to Plasma ratio [3]: 1.2
SMILES: CC(C)OC(=O)[C@H](C)NP(=O)(COCCn1cnc2c(NC3CC3)nc(N)nc21)N[C@@H](C)C(=O)OC(C)C [BisAlaiPr]

Hygroscopicity [4]: hygroscopic
SMILES: CCOC(=O)C(C)NP(=O)(COCCn1cnc2c(NC3CC3)nc(N)nc21)NC(C)C(=O)OCC (stereo not drawn) [Compound 1]

PBMC to Plasma ratio [3]: 19
SMILES: C[C@H](NP(=O)(COCCn1cnc2c(NC3CC3)nc(N)nc21)Oc1ccccc1)C(=O)OC(C)(C)C (single isomer, unassigned) [MonoAlatBu(A)]

SMILES: CC(C)OC(=O)[C@H](C)NP(=O)(COCCn1cnc2c(NC3CC3)nc(N)nc21)Oc1ccccc1 (stereo partly drawn) [MonoAlaiPr]
PBMC to Plasma ratio [3]: 17

PBMC to Plasma ratio [3]: 12
SMILES: C[C@H](NP(=O)(COCCn1cnc2c(NC3CC3)nc(N)nc21)Oc1ccccc1)C(=O)OC(C)(C)C (stereo partly drawn) [MonoAlatBu]
